Test results published in the NIST ThermoML archive (doi:10.1016/j.jct.2017.12.022).
Numbers after ± are expanded uncertainties.

How the values were obtained:
[1] = Crystal; DTA
[2] = Molar enthalpy of transition or fusion; conditions: Crystal; DSC

- Normal melting temperature [1]: 140.8 ± 1 °C
- Molar enthalpy of transition or fusion [2]: 8.48 ± 0.191 kcal/mol
SMILES: COC(=O)c1ccc(C(=O)OC)cc1 [dimethyl 1,4-benzenedicarboxylate]
